The test system of data set [1] is PBMCs from CMV-reactive donors stimulated with CMV antigen. As to the kind of experiment: Cytomegalovirus antigen assay (CMV), IFN-γ in supernatant by MSD. It counts as cell-based. The conditions noted are these: JNJ42756493 alone at 100, 1 or 0.01 nM; 6 days after treatment. On the procedure: FIG. 5 illustrates the effect of JNJ42756493 on IFN-γ levels induced by anti-PD-1 antibodies in a Cytomegalovirus antigen assay (CMV) Assay. Peripheral blood mononuclear cells (PMBCs) were stimulated with CMV antigen and treated with anti-PD-1 antibodies (concentration left to right—30, 10, 3.33, 1.11, 0.37, 0.12 nM) as indicated. JNJ42756493 was added at 100, 1, or 0.01 nM alone (concentrations left to right), together with anti-PD-1 antibodies (100, 1, or 0.01 nM JNJ42756493 together with 30, 10, 3.33, 1.11, 0.37, or 0.12 nM of anti-PD-1 antibody), or in the presence of isotype control (IC). 6 days after treatment, IFN-γ levels in the supernatant were measured by MSD.
In the CMV assay, PBMCs from CMV-reactive donors were stimulated by the addition of CMV antigen. CMV-reactive T cells are active, expand and secrete pro-inflammatory cytokines such as IFN-γ. […] In contrast, JNJ42756493 alone had no impact on cytokine levels (FIG. 5, JNJ-493 alone).

Data set [2] has as its system peripheral blood mononuclear cells (PBMCs) from normal donors. As to the kind of experiment: Immune cell viability of PBMCs by CellTiter-Glo. It counts as cell-based. The conditions noted are these: increasing concentrations up to 1 μM, days 1, 2, 5 and 6. The protocol: To determine the effects of JNJ427564493 on immune cell viability in vitro, peripheral blood mononuclear cells (PBMCs) from normal donors were stimulated with anti-CD3 antibodies to activate T cells, in the presence of increasing concentrations of JNJ42756493. Unstimulated PBMCs were also included to determine if JNJ42756493 affected unactivated immune populations. Cell viability was assessed at four different time points, over 6 days.

One molecule from patent US12678498B2, “FGFR/PD-1 combination therapy for the treatment of cancer” (ASTEX THERAPEUTICS LTD, priority 2015, dated 2026) can be followed below.

With `COc1cc(OC)cc(N(CCNC(C)C)c2ccc3ncc(-c4cnn(C)c4)nc3c2)c1` [JNJ42756493, N-(3,5-dimethoxyphenyl)-N′-(1-methylethyl)-N-[3-(1-methyl-1H-pyrazol-4-yl)quinoxalin-6-yl]ethane-1,2-diamine], the “cytokine (IFN-γ) levels” value in data set [1] was “no impact”. Besides, the “cell viability (luminescence signal)” value in data set [2] (PBMCs stimulated with anti-CD3 antibodies) and in data set [2] (unstimulated PBMCs) was “remained constant” in each case.
